In data set [1] the test system is anti-TFV polyclonal antibody. The experiment in a line: Immunoprecipitation of TFV by anti-TFV antibody, LC-MS readout. It is filed as binding, rabbit. The following applies: mixture of 50 μg/mL TFV and 1 mg/mL AMP (AMP 20× higher), anti-TFV serum, Protein G beads. As for the experimental part: LC-MS measurements were taken on an Agilent 1100 series LC/MSD with a Cortecs C18 column (90 Å, 2.7 μm, 4.6 mm×150 mm) from Waters (Milford, Mass.). Samples were dissolved in a solution of 9754, 0.6% trifluoroacetic acid in water and 254, methanol. 204, of sample was injected into a gradient mobile phase outlined in Table 1 at a flowrate of 0.6 mL/min into the column equilibrated at 45° C. and passed through the mass spectrometer set for positive polarity electrospray ionization (ESI+) at a range of 100-1500 m/z.
Two samples were prepared containing a mixture of 1004, of 50 μg/mL TFV and 100 μL of 1 mg/mL AMP. To one tube 375 μL of anti-TFV serum (+IP) was added and to the other 375 μL of PBS (−IP). The samples were incubated while rotating at 4° C. overnight. 3004, of Protein G bead suspension was added to the samples and further incubated at 4° C. for 1 hour. The samples were spun down for 1 minute at 3000 rpm and decanted. The supernatant from the (−IP) sample (−IPsup) was set aside. The beads were then washed and decanted four times with yeast lysis buffer (50 mM HEPES pH 7.6, 1 mM EDTA, 1% Triton X-100, 0.1% sodium deoxycholate, 140 mM NaCl), with the third wash being with a high salt yeast lysis buffer (500 mM NaCl). The beads were then heat eluted for 5 minutes at 95° C. into 100 μL of TE buffer. […]

The subject of data set [2] is anti-TFV antibody conjugated to gold nanoparticles. In words: Lateral flow assay specificity test. Format: binding, rabbit. The following applies: 100 μg/mL in urine. The method, then: (§1) Hi-Flow Plus HF180 nitrocellulose sheets were laser cut into lateral flow strips and chromatography paper was adhered to the end of the strips as a waste reservoir using autoclave tape. Samples of TFV were prepared at varying concentrations between 10 ng/mL and 100 μg/mL in urine alongside a no TFV control sample. For each sample, 1 μL of conjugated gold nanoparticles was added to 244, of PBS and 804, of sample was added. The mixture was allowed to incubate at room temperature on a rotator for at least 30 minutes. 0.3 μL of anti-rabbit antibody was spotted on the strips as a control spot. 0.3 μL of 2.5 μg/mL BSA-TFV was spotted as the test spot on the strips upstream of the control spot. The spots were allowed to dry and another 0.3 μL of BSA-TFV was spotted on top of the test spot. After incubation, concentrated TBS-T was added to each sample such that the final Tween 20 concentration was 0.05%. One end of each of the lateral flow strips was dipped vertically into the sample tubes such that the solution ran up the nitrocellulose strip and into the waste reservoir via capillary action. The strips were incubated in the solution for 25-30 minutes before being photographed with a Nikon DS-Ri2 camera and analyzed via ImageJ.
The protocol is the same as the competitive lateral flow assay. Solutions of TFV, AZT, Abcavir, AMP, and adenine were made at concentrations of 100 μg/mL alongside a urine only control sample.

The conditions of data set [3]: cited from earlier work.
For data set [4] the following is noted: cited from earlier work. The source holds these as a separate data set.
For data set [5], the system named is anti-TFV antibody conjugated to gold nanoparticles. In words: Competitive gold nanoparticle lateral flow assay, sensitivity test. It is filed as binding, rabbit. The method, then: as §1
There was a statistically significant difference between groups as determined by one-way ANOVA (F(5,24)=15.0, p=1.02×10^−6).

In data set [6] the test system is anti-TFV polyclonal antibody. The experiment in a line: Competitive dot blot assay. Format: binding, rabbit. The following applies: spiked urine, HRP-coupled secondary antibody. As for the experimental part:
Nitrocellulose strips were cut to dimensions of approximately 7 mm by 25 mm. BSA-TFV solution in PBS was diluted down to either 1 μg/mL or 100 ng/mL representing about a 1000-fold or 10,000-fold dilution factor. The strips were then spotted 3 times with luL of diluted BSA-TFV and allowed to dry. The strips were blocked with 5% milk in tris-buffered saline with Tween 20 (TBS-T) for 30 minutes and washed three times with TBS-T. Samples of TFV were prepared at varying concentrations between 1 ng/mL and 1 μg/mL in either TBS-T or human urine alongside a no TFV control sample. Anti-TFV polyclonal antibody from raw serum (e.g., unpurified) was added to the TFV samples at a dilution of 1:50,000 and incubated at room temperature while rotating for at least 1 hour. The strips were incubated in the spiked urine or TBS-T solutions of TFV and anti-TFV polyclonal antibody at room temperature while rotating for 1 hour and washed three times with TBS-T followed by a high-salt (500 mM NaCl) TBS-T wash and a low-salt (50 mM NaCl) TBS-T wash. The strips were then incubated in a 1:8000 dilution in TBS-T of anti-Rabbit antibody conjugated to HRP at room temperature while rotating for 1 hour and washed three times with TBS-T. The HRP was then visualized by pico chemiluminescent substrate and chemiluminescent photographs were taken by a VersaDoc Imaging Model 4000 system from BioRad.

Counter-ions that a name gives are not always drawn.

As to `Nc1ncnc2c1ncn2[C@@H]1O[C@H](COP(=O)(O)O)[C@@H](O)[C@H]1O` [AMP, adenosine monophosphate], the “presence in immunoprecipitation product by LC-MS” value in data set [1] is reported as “absence”. Further, the “staining of test area (no staining = positive for TFV)” value in data set [2] is “staining in both the test area and control area”.

`Cc1cn([C@H]2C[C@H](N=[N+]=[N-])[C@@H](CO)O2)c(=O)[nH]c1=O` [AZT]: the “staining of test area (no staining = positive for TFV)” value in data set [2] was “staining in both the test area and control area”.

Turning to `Nc1nc(NC2CC2)c2ncn([C@H]3C=C[C@@H](CO)C3)c2n1` [Abcavir], in data set [2], the “staining of test area (no staining = positive for TFV)” value is “staining in both the test area and control area”.

For `Nc1ncnc2nc[nH]c12` [Adenine, adenine], the “staining of test area (no staining = positive for TFV)” value in data set [2] is “staining in both the test area and control area”.

As to `NNC(=O)c1ccncc1` [INH, isoniazid], the “urinary concentrations of INA” value in data set [3] (typical dose 250 mg/day for a 50 kg patient) is roughly 100 µg/mL. The “oral dose recovered in the urine as INA” value in data set [3] (within 24 hr) is 30-40%.

Regarding `CC(C)OC(=O)[C@H](C)N[P@](=O)(CO[C@H](C)Cn1cnc2c(N)ncnc21)Oc1ccccc1` [TAF, tenofovir alafenamide], in data set [4] (TAF 25 mg per day, compared with TDF), the “decrease in TFV plasma concentrations” value is given as roughly 10 ×.

With `CC(C)OC(=O)OCOP(=O)(CO[C@H](C)Cn1cnc2c(N)ncnc21)OCOC(=O)OC(C)C` [TDF, tenofovir disoproxil fumarate], the “urine concentration of TFV” value in data set [4] (patient taking 300 mg TDF daily) is reported as “around 23 μg/mL”.

With `C[C@H](Cn1cnc2c(N)ncnc21)OCP(=O)(O)O` [TFV, Tenofovir], the “presence in immunoprecipitation product by LC-MS” value in data set [1] is “presence”. Also, in data set [4] (300 mg ingested only once, after 24-72 hours), the “concentration of TFV in urine” value is 1000 to 10000 ng/mL. In addition, the “urinary concentration of TFV relative to plasma concentration” value in data set [4] (patients on TFV regimens) was “over 100 ×”. The “staining of test area (no staining = positive for TFV)” value in data set [2] is “no staining”. In data set [5] (1 μg/mL, 10 μg/mL and 100 μg/mL TFV in urine, N=5), the “test spot intensity versus no-TFV control (ANOVA, Tukey post hoc)” value is listed as “statistically significant differences”. In addition, the “lower limit of detection / sensitivity” value in data set [5] (spiked urine, preliminary) came out at 1 µg/mL. The “lower limit of detection” value in data set [6] amounted to 35 nM.

Source of the values: patent publication US10768185B2, “Tenofovir detection assay” (TRUSTEES OF BOSTON UNIVERSITY, priority 2017, dated 2020).
